Key:
stress-induced ulcer = test: Inhibitory action on stress-induced ulcer formation; format: in vivo, Sprague-Dawley strain male rats; details: oral; for dose dependence of inhibiting action on ulcer formation: 30 mg/kg and above; for Ulcer Index (mean value ± standard deviation): Ulcer Index = a + b/10, control 6.1 ± 2.3; for Number of Ulcers/Stomach, 3 mm or larger: control 1.3; for Number of Ulcers/Stomach, up to 3 mm: control 45.6; for Percent Inhibition: ulcer index
Procedure: Sprague-Dawley strain male rats weighing 200-250 g were deprived of food for 24 hours, and then laid down on their backs on a screen and fixed by fastening their limbs with a strand. The fixed rats were submerged in water bath to the depth of ensiform process with their hind legs dipped first. Sixteen hours after the submerge, the rats were brought out from the bath and their stomachs were taken out. After light fixation with a 1% formalin aqueous solution, the stomach of each animal was cut open along their greater curvature and gastric mucosa was observed through a dissecting microscope. The ulcer was evaluated on an ulcer index calculated from the following equation: […]
wherein a is the number of big ulcers more than 3 mm in diameter and b is the number of small ulcers up to 3 mm in diameter.
A test compound was orally administered as a suspension in a 1% gum arabic aqueous solution, 10 minutes before exposure to stress.

pylorus ligature ulcer = test: Protective action on pylorus ligature ulcer formation; format: in vivo, Sprague-Dawley strain male rats; details: for Death Rate / Perforating Ulcers / Ulcer Index (mean value ± standard deviation) / Percent Inhibition: in the duodenum; for Ulcer Index (mean value ± standard deviation): scale 0 to 5, control 4.0 ± 1.3; for Percent Inhibition: ulcer index
Procedure: The pylorus of Sprague-Dawley strain male rats weighing 150-200 g that had abstained from food, but not water for 48 hours was ligatured under ether anethsia. Each rat was allowed to stand individually in a cage for 16 hours without food and water. At the end of this term, the rats were sacrificed by an overdose of diethyl ether. The stomach was taken out of each animal and the gastric mucosa was obserbed by the use of a dissecting microscope.
Ulcers observed in the gastric mucosa were evaluated on a scale of from 0 to 5 defined as follows.
0: No lesion was observed.
1: Hemorrhage and/or erosion were observed.
2: One to five small ulcers less than 3 mm in diameter were observed.
3: Six or more small ulcers and/or a large ulcer more than 3 mm in diameter were observed.
4: Two or more large ulcers were observed.
5: At least one perforating ulcer was observed.
A test compound was administered as an aqueous solution in an equivalent molar of hydrochloric acid in the duodenum immediately after the pylorus ligature.

acetic acid ulcer = test: Action on the healing of acetic acid ulcers; format: in vivo, Sprague-Dawley strain male rats; details: oral; for Percent healing Rate / Ulcer Index (mean number ± standard deviation), product of major and minor axis: once a day for 15 days; for Ulcer Index (mean number ± standard deviation), product of major and minor axis: control 12.5 ± 6.0
Procedure: Sprague-Dawley strain male rate (8 weeks old) were etherized and their abdominal parts were cut open. A 20% acetic acid aqueous solution (0.05 ml) was injected into subserosal layer in the glandular part of stomach of each rat and the incisions were sutured.
From the fourth day after the operation, each rat was orally administered with 1-(3'-dimethylaminopropoxy)-2,4-bis(3"-methylbenzamido)-benzene in a dose of 10 mg/kg or 40 mg/kg. body weight as an aqueous solution in an equivalent molar of hydrochloric acid once a day for 15 days. On the day after the last administration, the rats were sacrificed by an overdose of diethyl ether and the stomach of each of the rats was taken out. After light fixation of the stomach with a 1% formalin solution, it was cut open along the greater curvature and the gastric mucosa was observed through a dissecting microscope. The ulcer was evaluated as the product (mm^2) of the major axis and the minor axis of the ulcer.

Acute toxicity in mice = details: mouse, in vivo, po

SMILES	dose dependence of inhibiting action on ulcer formation (stress-induced ulcer)	inhibition of the formation of ulcer (stress-induced ulcer; 30 mg/kg body weight)	Ulcer Index (mean value ± standard deviation) (stress-induced ulcer; 30 mg/kg)	Number of Ulcers/Stomach, 3 mm or larger (stress-induced ulcer; 30 mg/kg)	Number of Ulcers/Stomach, up to 3 mm (stress-induced ulcer; 30 mg/kg)	Percent Inhibition (stress-induced ulcer; 30 mg/kg) [%]	Ulcer Index (mean value ± standard deviation) (stress-induced ulcer; 45 mg/kg)	Number of Ulcers/Stomach, 3 mm or larger (stress-induced ulcer; 45 mg/kg)	Number of Ulcers/Stomach, up to 3 mm (stress-induced ulcer; 45 mg/kg)	Percent Inhibition (stress-induced ulcer; 45 mg/kg) [%]	Ulcer Index (mean value ± standard deviation) (stress-induced ulcer; 67 mg/kg)	Number of Ulcers/Stomach, 3 mm or larger (stress-induced ulcer; 67 mg/kg)	Ulcer Index (mean value ± standard deviation) (stress-induced ulcer; 100 mg/kg)	Number of Ulcers/Stomach, 3 mm or larger (stress-induced ulcer; 100 mg/kg)	Number of Ulcers/Stomach, up to 3 mm (stress-induced ulcer; 100 mg/kg)	Percent Inhibition (stress-induced ulcer; 100 mg/kg) [%]	Death Rate (pylorus ligature ulcer; 200 mg/kg) [%]	Perforating Ulcers (pylorus ligature ulcer; 200 mg/kg) [%]	Ulcer Index (mean value ± standard deviation) (pylorus ligature ulcer; 200 mg/kg)	Percent Inhibition (pylorus ligature ulcer; 200 mg/kg) [%]	other results
Cc1ccccc1C(=O)Nc1ccc(OCCCN(C)C)c(NC(=O)c2ccccc2C)c1 [1-(3'-dimethylaminopropoxy)-2,4-bis(2"-methylbenzamido)-benzene]	inhibiting action increases as the dose level heightens	50-60%	2.8 ± 0.8	0.6	23.4	54	2.0 ± 0.6	0.2	16.8	67	1.0 ± 0.9	0.2	0.4 ± 0.5	0	3.8	93	0	0	0	100	Number of Ulcers/Stomach, up to 3 mm (stress-induced ulcer; 67 mg/kg): 8.8; Percent Inhibition (stress-induced ulcer; 67 mg/kg): 84%; Death Rate (pylorus ligature ulcer; 50 mg/kg): 20%; Perforating Ulcers (pylorus ligature ulcer; 50 mg/kg): 20%; Ulcer Index (mean value ± standard deviation) (pylorus ligature ulcer; 50 mg/kg): 3.2 ± 1.3; Percent Inhibition (pylorus ligature ulcer; 50 mg/kg): 20%; inhibition of death of rats and formation of perforating ulcers (pylorus ligature ulcer; 100 mg/kg or 200 mg/kg): completely inhibited the death of rats and the formation of perforating ulcers; prevention of formation of gastric ulcers (pylorus ligature ulcer; 100 mg/kg or 200 mg/kg): prevented the formation of gastric ulcers on a statistically significant level; Death Rate (pylorus ligature ulcer; 100 mg/kg): 0%; Perforating Ulcers (pylorus ligature ulcer; 100 mg/kg): 0%; Ulcer Index (mean value ± standard deviation) (pylorus ligature ulcer; 100 mg/kg): 2.6 ± 0.5; Percent Inhibition (pylorus ligature ulcer; 100 mg/kg): 35%
Cc1cccc(C(=O)Nc2ccc(OCCCN(C)C)c(NC(=O)c3cccc(C)c3)c2)c1 [1-(3'-dimethylaminopropoxy)-2,4-bis(3"-methylbenzamido)-benzene]	inhibiting action increases as the dose level heightens	50-60%	2.6 ± 2.1	0.5	21.4	57	2.0 ± 1.7	1.0	8.7	67	1.5 ± 2.7	0.8	2.0 ± 2.1	0.8	10.6	67	0	0	1.0 ± 1.1	75	Number of Ulcers/Stomach, up to 3 mm (stress-induced ulcer; 67 mg/kg): 7.3; Percent Inhibition (stress-induced ulcer; 67 mg/kg): 75%; Death Rate (pylorus ligature ulcer; 50 mg/kg): 33%; Perforating Ulcers (pylorus ligature ulcer; 50 mg/kg): 50%; Ulcer Index (mean value ± standard deviation) (pylorus ligature ulcer; 50 mg/kg): 4.0 ± 1.1; Percent Inhibition (pylorus ligature ulcer; 50 mg/kg): 0%; inhibition of death of rats and formation of perforating ulcers (pylorus ligature ulcer; 100 mg/kg or 200 mg/kg): completely inhibited the death of rats and the formation of perforating ulcers; prevention of formation of gastric ulcers (pylorus ligature ulcer; 100 mg/kg or 200 mg/kg): prevented the formation of gastric ulcers on a statistically significant level; Death Rate (pylorus ligature ulcer; 100 mg/kg): 0%; Perforating Ulcers (pylorus ligature ulcer; 100 mg/kg): 0%; Ulcer Index (mean value ± standard deviation) (pylorus ligature ulcer; 100 mg/kg): 2.0 ± 1.4; Percent Inhibition (pylorus ligature ulcer; 100 mg/kg): 50%; ulcer index in comparison with control (acetic acid ulcer; 10 mg/kg and 40 mg/kg): on a statistically significant lower level in comparison with those of the control; Percent healing Rate (acetic acid ulcer; 10 mg/kg): 45%; Ulcer Index (mean number ± standard deviation), product of major and minor axis (acetic acid ulcer; 10 mg/kg): 6.9 ± 5.6 mm^2; Percent healing Rate (acetic acid ulcer; 40 mg/kg): 42%; Ulcer Index (mean number ± standard deviation), product of major and minor axis (acetic acid ulcer; 40 mg/kg): 7.2 ± 5.1 mm^2
Cc1ccccc1C(=O)Nc1ccc(C(=O)NCCCN(C)C)c(NC(=O)c2ccccc2C)c1 [1-[N-(3'-dimethylaminopropyl)-carbamoyl]-2,4-bis(2"-methylbenzamido)-benzene]	–	–	–	–	–	–	–	–	–	–	–	–	3.0 ± 1.0	0.8	23.4	51	0	0	1.4 ± 1.4	65	inhibition of the formation of ulcer (stress-induced ulcer; 100 mg/kg body weight): 50-60%; inhibition of death of rats and formation of perforating ulcers (pylorus ligature ulcer; 200 mg/kg): completely inhibited the death of rats and the formation of perforating ulcers; prevention of formation of gastric ulcers (pylorus ligature ulcer; 200 mg/kg): prevented the formation of gastric ulcers on a statistically significant level; LD50 (Acute toxicity in mice): > 11000 mg/kg
Cc1cccc(C(=O)Nc2ccc(C(=O)NCCCN(C)C)c(NC(=O)c3cccc(C)c3)c2)c1 [1-[N-(3'-dimethylaminopropyl)-carbamoyl]-2,4-bis(3"-methylbenzamido)-benzene]	–	–	–	–	–	–	–	–	–	–	–	–	2.4 ± 2.1	0.6	17.6	61	0	0	2.5 ± 1.4	38	inhibition of the formation of ulcer (stress-induced ulcer; 100 mg/kg body weight): 50-60%; inhibition of death of rats and formation of perforating ulcers (pylorus ligature ulcer; 200 mg/kg): completely inhibited the death of rats and the formation of perforating ulcers; prevention of formation of gastric ulcers (pylorus ligature ulcer; 200 mg/kg): prevented the formation of gastric ulcers on a statistically significant level

From patent US4092431A, “Pharmaceutical composition and method of the use thereof” (Chugai Seiyaku Kabushiki Kaisha, priority 1977, dated 1978)
